Here are results for one compound from PMC3488320, “Indirubin derivative E804 inhibits angiogenesis” (BMC Cancer, 2012).

Structures are written as SMILES.

The assay deals with T1, VEGFR-2 (Homo sapiens, UniProt P35968).
T1 construct: gene KDR
In words: HTScan VEGFR-2 kinase assay kit (purified kinase, peptide substrate, pTyr-100 ELISA). It counts as biochemical. (An ELISA detects its analyte on a solid surface through an enzyme-linked reagent.)

T1 sequence (P35968 20-1356): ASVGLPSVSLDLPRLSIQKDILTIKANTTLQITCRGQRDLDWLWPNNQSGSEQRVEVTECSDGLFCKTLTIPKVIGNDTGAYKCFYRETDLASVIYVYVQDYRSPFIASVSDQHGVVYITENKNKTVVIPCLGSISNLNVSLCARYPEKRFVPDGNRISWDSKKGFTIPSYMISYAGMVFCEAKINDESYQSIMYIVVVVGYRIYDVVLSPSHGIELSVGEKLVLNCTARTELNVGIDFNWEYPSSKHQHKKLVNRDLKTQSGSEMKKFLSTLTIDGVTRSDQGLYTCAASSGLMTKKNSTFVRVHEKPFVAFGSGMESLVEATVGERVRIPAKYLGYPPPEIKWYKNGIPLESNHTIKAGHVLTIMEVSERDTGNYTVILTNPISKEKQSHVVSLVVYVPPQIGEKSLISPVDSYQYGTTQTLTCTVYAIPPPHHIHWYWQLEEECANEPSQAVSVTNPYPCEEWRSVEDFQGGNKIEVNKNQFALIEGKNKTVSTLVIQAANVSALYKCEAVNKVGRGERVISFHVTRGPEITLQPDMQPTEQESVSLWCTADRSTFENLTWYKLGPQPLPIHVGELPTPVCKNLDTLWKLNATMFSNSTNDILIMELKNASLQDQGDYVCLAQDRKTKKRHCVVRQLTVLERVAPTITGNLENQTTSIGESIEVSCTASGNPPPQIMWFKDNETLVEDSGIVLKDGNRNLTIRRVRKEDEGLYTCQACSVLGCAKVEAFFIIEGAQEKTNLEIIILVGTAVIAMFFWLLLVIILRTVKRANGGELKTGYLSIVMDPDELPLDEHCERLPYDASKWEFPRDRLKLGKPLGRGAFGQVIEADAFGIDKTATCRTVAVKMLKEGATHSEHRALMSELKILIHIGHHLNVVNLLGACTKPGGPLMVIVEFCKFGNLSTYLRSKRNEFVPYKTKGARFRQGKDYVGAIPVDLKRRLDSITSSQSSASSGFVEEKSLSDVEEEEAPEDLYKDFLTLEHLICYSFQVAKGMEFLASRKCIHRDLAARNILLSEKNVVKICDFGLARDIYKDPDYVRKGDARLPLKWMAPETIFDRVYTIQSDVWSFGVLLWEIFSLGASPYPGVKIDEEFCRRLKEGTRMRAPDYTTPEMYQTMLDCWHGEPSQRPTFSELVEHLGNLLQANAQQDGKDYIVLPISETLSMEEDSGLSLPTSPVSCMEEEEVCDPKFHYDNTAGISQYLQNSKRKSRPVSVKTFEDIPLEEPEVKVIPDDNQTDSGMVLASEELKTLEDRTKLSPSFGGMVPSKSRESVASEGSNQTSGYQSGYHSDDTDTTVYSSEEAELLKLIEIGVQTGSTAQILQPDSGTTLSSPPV

By IC50 is commonly meant the concentration needed to halve the response being measured. Low readings indicate greater potency, high ones weaker potency. Take `O=C1Nc2ccccc2C1=C1Nc2ccccc2C1=NOCC(O)CO` (stereo not shown) [IDR-E804]: the IC50 amounted to 0.95 µM.
